# Laboratory results as given in PubChem BioAssay AID1745844 (Carcinogenic Potency Database (CPDB), 2022).
# Active and inactive are the calls of the source. The rule behind the calls is not given here.
# Test system: rodent lifetime carcinogenesis bioassay, tumor incidence TD50
# Assay: chronic cancer bioassays in animals – CPDB, compiled studies (AID 1745844)
compound,measurement,setting,value
C1N2CN3CN1CN(C2)C3,carcinogen call,"mouse, strain C3Hf/Dp, females, in drinking water, site: any site (literature study), lesion: several types, types named in the paper, dosed 60 weeks, study length 105 weeks",negative (inactive)
same,TD50,"mouse, strain C3Hf/Dp, females, in drinking water, site: liver, lesion: angioma, dosed 60 weeks, study length 105 weeks",51900 mg/kg/day (inactive)
same,carcinogen call,"mouse, strain C3Hf/Dp, females, in drinking water, site: liver, lesion: hepatoma, dosed 60 weeks, study length 105 weeks",negative (inactive)
same,carcinogen call,"mouse, strain C3Hf/Dp, females, in drinking water, site: lung, lesion: adenoma, dosed 60 weeks, study length 105 weeks",negative (inactive)
same,carcinogen call,"mouse, strain C3Hf/Dp, males, in drinking water, site: any site (literature study), lesion: several types, types named in the paper, dosed 60 weeks, study length 105 weeks",negative (inactive)
same,TD50,"mouse, strain C3Hf/Dp, males, in drinking water, site: liver, lesion: angioma, dosed 60 weeks, study length 105 weeks",32300 mg/kg/day (inactive)
same,carcinogen call,"mouse, strain C3Hf/Dp, males, in drinking water, site: liver, lesion: hepatoma, dosed 60 weeks, study length 105 weeks",negative (inactive)
same,TD50,"mouse, strain C3Hf/Dp, males, in drinking water, site: lung, lesion: adenoma, dosed 60 weeks, study length 105 weeks",293000 mg/kg/day (inactive)
same,TD50,"mouse, strain CTM, females, in drinking water, site: Harderian gland, lesion: one or several types, types not named, dosed 50 weeks, study length 100 weeks",26300 mg/kg/day (inactive)
same,TD50,"mouse, strain CTM, females, in drinking water, site: any site (literature study), lesion: several types, types named in the paper, dosed 50 weeks, study length 100 weeks",11600 mg/kg/day (inactive)
same,carcinogen call,"mouse, strain CTM, females, in drinking water, site: liver, lesion: angioma, dosed 50 weeks, study length 100 weeks",negative (inactive)
same,carcinogen call,"mouse, strain CTM, females, in drinking water, site: lung, lesion: adenoma, dosed 50 weeks, study length 100 weeks",negative (inactive)
same,TD50,"mouse, strain CTM, females, in drinking water, site: several sites, sites named in the paper, lesion: one or several types, types not named, dosed 50 weeks, study length 100 weeks",20900 mg/kg/day (inactive)
same,carcinogen call,"mouse, strain CTM, males, in drinking water, site: any site (literature study), lesion: several types, types named in the paper, dosed 50 weeks, study length 100 weeks",negative (inactive)
same,carcinogen call,"mouse, strain CTM, males, in drinking water, site: liver, lesion: angioma, dosed 50 weeks, study length 100 weeks",negative (inactive)
same,carcinogen call,"mouse, strain CTM, males, in drinking water, site: lung, lesion: adenoma, dosed 50 weeks, study length 100 weeks",negative (inactive)
same,carcinogen call,"mouse, strain SWR, females, in drinking water, site: any site (literature study), lesion: several types, types named in the paper, dosed 60 weeks, study length 103 weeks",negative (inactive)
same,carcinogen call,"mouse, strain SWR, females, in drinking water, site: liver, lesion: one or several types, types not named, dosed 60 weeks, study length 103 weeks",negative (inactive)
same,carcinogen call,"mouse, strain SWR, females, in drinking water, site: lung, lesion: adenoma, dosed 60 weeks, study length 103 weeks",negative (inactive)
same,carcinogen call,"mouse, strain SWR, males, in drinking water, site: any site (literature study), lesion: several types, types named in the paper, dosed 60 weeks, study length 103 weeks",negative (inactive)
same,carcinogen call,"mouse, strain SWR, males, in drinking water, site: liver, lesion: angioma, dosed 60 weeks, study length 103 weeks",negative (inactive)
same,carcinogen call,"mouse, strain SWR, males, in drinking water, site: lung, lesion: adenoma, dosed 60 weeks, study length 103 weeks",negative (inactive)
same,carcinogen call,"rat, strain Wistar, females, in drinking water, site: any site (literature study), lesion: several types, types named in the paper, dosed 104 weeks, study length 146 weeks",negative (inactive)
same,carcinogen call,"rat, strain Wistar, females, in drinking water, site: liver, lesion: one or several types, types not named, dosed 104 weeks, study length 146 weeks",negative (inactive)
same,carcinogen call,"rat, strain Wistar, males, in drinking water, site: any site (literature study), lesion: several types, types named in the paper, dosed 104 weeks, study length 146 weeks",negative (inactive)
same,carcinogen call,"rat, strain Wistar, males, in drinking water, site: liver, lesion: liver-cell carcinoma, dosed 104 weeks, study length 146 weeks",negative (inactive)
CC(C)NCC(O)c1ccc(NS(C)(=O)=O)cc1 (stereo not given),TD50,"mouse, strain Charles River CD1, females, in feed, site: any site (literature study), lesion: benign tumor, dosed 78 weeks, study length 92 weeks",1740 mg/kg/day (inactive)
same,carcinogen call,"mouse, strain Charles River CD1, females, in feed, site: any site (literature study), lesion: malignant tumor, dosed 78 weeks, study length 92 weeks",negative (inactive)
same,TD50,"mouse, strain Charles River CD1, females, in feed, site: any site (literature study), lesion: several types, types named in the paper, dosed 78 weeks, study length 92 weeks",1910 mg/kg/day (inactive)
same,carcinogen call,"mouse, strain Charles River CD1, females, in feed, site: liver, lesion: one or several types, types not named, dosed 78 weeks, study length 92 weeks",negative (inactive)
same,TD50,"mouse, strain Charles River CD1, females, in feed, site: lung, lesion: adenoma, dosed 78 weeks, study length 92 weeks",3500 mg/kg/day (inactive)
same,TD50,"mouse, strain Charles River CD1, females, in feed, site: lung, lesion: carcinoma, dosed 78 weeks, study length 92 weeks",24500 mg/kg/day (inactive)
same,carcinogen call,"mouse, strain Charles River CD1, males, in feed, site: any site (literature study), lesion: benign tumor, dosed 78 weeks, study length 92 weeks",negative (inactive)
same,carcinogen call,"mouse, strain Charles River CD1, males, in feed, site: any site (literature study), lesion: malignant tumor, dosed 78 weeks, study length 92 weeks",negative (inactive)
same,carcinogen call,"mouse, strain Charles River CD1, males, in feed, site: any site (literature study), lesion: several types, types named in the paper, dosed 78 weeks, study length 92 weeks",negative (inactive)
same,carcinogen call,"mouse, strain Charles River CD1, males, in feed, site: liver, lesion: adenoma, dosed 78 weeks, study length 92 weeks",negative (inactive)
same,carcinogen call,"mouse, strain Charles River CD1, males, in feed, site: liver, lesion: carcinoma, dosed 78 weeks, study length 92 weeks",negative (inactive)
same,TD50,"mouse, strain Charles River CD1, males, in feed, site: lung, lesion: adenoma, dosed 78 weeks, study length 92 weeks",31400 mg/kg/day (inactive)
same,carcinogen call,"mouse, strain Charles River CD1, males, in feed, site: lung, lesion: carcinoma, dosed 78 weeks, study length 92 weeks",negative (inactive)
same,carcinogen call,"rat, strain Long-Evans, females, in feed, site: any site (literature study), lesion: benign tumor, dosed 78 weeks, study length 104 weeks",negative (inactive)
same,TD50,"rat, strain Long-Evans, females, in feed, site: any site (literature study), lesion: malignant tumor, dosed 78 weeks, study length 104 weeks",1600 mg/kg/day (inactive)
same,TD50,"rat, strain Long-Evans, females, in feed, site: any site (literature study), lesion: several types, types named in the paper, dosed 78 weeks, study length 104 weeks",477 mg/kg/day (inactive)
same,TD50,"rat, strain Long-Evans, females, in feed, site: liver, lesion: cholangioma, dosed 78 weeks, study length 104 weeks",12600 mg/kg/day (inactive)
same,carcinogen call,"rat, strain Long-Evans, males, in feed, site: any site (literature study), lesion: benign tumor, dosed 78 weeks, study length 104 weeks",negative (inactive)
same,TD50,"rat, strain Long-Evans, males, in feed, site: any site (literature study), lesion: malignant tumor, dosed 78 weeks, study length 104 weeks",2270 mg/kg/day (inactive)
same,TD50,"rat, strain Long-Evans, males, in feed, site: any site (literature study), lesion: several types, types named in the paper, dosed 78 weeks, study length 104 weeks",796 mg/kg/day (inactive)
same,TD50,"rat, strain Long-Evans, males, in feed, site: liver, lesion: hepatocellular adenoma, dosed 78 weeks, study length 104 weeks",309000 mg/kg/day (inactive)
same,TD50,"rat, strain Long-Evans, males, in feed, site: liver, lesion: hepatocellular carcinoma, dosed 78 weeks, study length 104 weeks",12400 mg/kg/day (inactive)
COc1nn(CSP(=S)(OC)OC)c(=O)s1,carcinogen call,"mouse, strain Charles River CD1, females, in feed, site: liver, lesion: hepatocellular adenoma, dosed 100 weeks, study length 100 weeks",negative (inactive)
same,TD50,"mouse, strain Charles River CD1, females, in feed, site: liver, lesion: hepatocellular carcinoma, dosed 100 weeks, study length 100 weeks",184 mg/kg/day (inactive)
same,TD50,"mouse, strain Charles River CD1, females, in feed, site: liver, lesion: several types, types named in the paper, dosed 100 weeks, study length 100 weeks",16200 mg/kg/day (inactive)
same,TD50,"mouse, strain Charles River CD1, males, in feed, site: liver, lesion: hepatocellular adenoma, dosed 100 weeks, study length 100 weeks",17.2 mg/kg/day
same,TD50,"mouse, strain Charles River CD1, males, in feed, site: liver, lesion: hepatocellular carcinoma, dosed 100 weeks, study length 100 weeks",21.8 mg/kg/day
same,TD50,"mouse, strain Charles River CD1, males, in feed, site: liver, lesion: several types, types named in the paper, dosed 100 weeks, study length 100 weeks",6.04 mg/kg/day
CCCC[N+](=O)[O-],carcinogen call,"rat, strain Fischer 344, males, by gavage, site: liver, lesion: one or several types, types not named, dosed 50 weeks, study length 83 weeks",negative (inactive)
CCN(CC)C(=S)S[Se](SC(=S)N(CC)CC)(SC(=S)N(CC)CC)SC(=S)N(CC)CC,TD50,"mouse, strain B6AKF1, females, oral dosing, site: any site (literature study), lesion: several types, types named in the paper, dosed 81 weeks, study length 81 weeks",10.5 mg/kg/day
same,TD50,"mouse, strain B6AKF1, males, oral dosing, site: any site (literature study), lesion: several types, types named in the paper, dosed 81 weeks, study length 81 weeks",8.45 mg/kg/day
same,TD50,"mouse, strain B6AKF1, males, oral dosing, site: liver, lesion: hepatoma, dosed 81 weeks, study length 81 weeks",10.2 mg/kg/day
same,TD50,"mouse, strain B6AKF1, males, oral dosing, site: lung, lesion: adenoma, dosed 81 weeks, study length 81 weeks",18.4 mg/kg/day
same,TD50,"mouse, strain B6C3F1, females, oral dosing, site: any site (literature study), lesion: several types, types named in the paper, dosed 81 weeks, study length 81 weeks",3.46 mg/kg/day
same,TD50,"mouse, strain B6C3F1, females, oral dosing, site: liver, lesion: hepatoma, dosed 81 weeks, study length 81 weeks",7.76 mg/kg/day
same,TD50,"mouse, strain B6C3F1, males, oral dosing, site: any site (literature study), lesion: several types, types named in the paper, dosed 81 weeks, study length 81 weeks",0.638 mg/kg/day
same,TD50,"mouse, strain B6C3F1, males, oral dosing, site: liver, lesion: hepatoma, dosed 81 weeks, study length 81 weeks",1.49 mg/kg/day
same,TD50,"mouse, strain B6C3F1, males, oral dosing, site: liver, lesion: several types, types named in the paper, dosed 81 weeks, study length 81 weeks",1.28 mg/kg/day
C#CC(C)(C)NC(=O)c1cc(Cl)cc(Cl)c1,TD50,"mouse, strain B6C3F1, males, in feed, site: liver, lesion: hepatocellular carcinoma, dosed 78 weeks, study length 78 weeks",1480 mg/kg/day
same,TD50,"mouse, strain B6C3F1, males, in feed, site: liver, lesion: hepatocellular carcinoma, dosed 104 weeks, study length 104 weeks",140 mg/kg/day
same,TD50,"mouse, strain B6C3F1, males, in feed, site: liver, lesion: several types, types named in the paper, dosed 52 weeks, study length 52 weeks",1360 mg/kg/day
same,TD50,"mouse, strain B6C3F1, males, in feed, site: liver, lesion: several types, types named in the paper, dosed 78 weeks, study length 78 weeks",700 mg/kg/day
same,TD50,"mouse, strain B6C3F1, males, in feed, site: liver, lesion: several types, types named in the paper, dosed 104 weeks, study length 104 weeks",209 mg/kg/day
CN(CCO)N=O,TD50,"rat, strain Fischer 344, males, by gavage, site: liver, lesion: hemangiosarcoma, dosed 69 weeks, study length 69 weeks",8.97 mg/kg/day
same,TD50,"rat, strain Fischer 344, males, by gavage, site: liver, lesion: hepatocellular carcinoma, dosed 69 weeks, study length 69 weeks",1.29 mg/kg/day
same,TD50,"rat, strain Fischer 344, males, by gavage, site: nasal cavity, lesion: squamous-cell carcinoma, dosed 69 weeks, study length 69 weeks",2.06 mg/kg/day
same,TD50,"rat, strain Fischer 344, males, by gavage, site: nasal cavity, lesion: squamous-cell papilloma, dosed 69 weeks, study length 69 weeks",8.97 mg/kg/day
C#C[C@]1(O)CC[C@H]2[C@@H]3CCc4cc(O)ccc4[C@H]3CC[C@@]21C,TD50,"rat, strain Slc-Wistar, females, by gavage, site: liver, lesion: hepatocellular carcinoma, dosed 52 weeks, study length 52 weeks",0.2 mg/kg/day
CC(=O)N(O)c1ccc(-c2ccccc2)cc1,carcinogen call,"rat, strain Not specified, females, in feed, site: liver, lesion: one or several types, types not named, dosed 43 weeks, study length 65 weeks",negative (inactive)
